Tested on: 596521-263-R-J1-PDC complex spheroids, viability % of control
Assay: Anticancer human tumor 596521-263-R-J1-PDC patient-derived soft tissue sarcoma cell line growth inhibition [GQUAD]
Details: for IC50: curve of first compound; for viability, T/C: stronger effect = lower value
Summary of the method: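 Viability of tumor cells grown as complex spheroids with endothelial and stromal cells, exposed to drug combinations. Top concentration at or near clinical Cmax (else 10 microM), diluted in half-log increments.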

[1] = second compound 0.0316 µM, first compound 0.0316 µM
[2] = second compound 0.0316 µM, first compound 0.1 µM
[3] = second compound 0.0316 µM, first compound 0.316 µM
[4] = second compound 0.0316 µM, first compound 1 µM
[5] = second compound 0.0316 µM, first compound 3.16 µM
[6] = second compound 0.0316 µM, first compound 10 µM
[7] = second compound 0.1 µM, first compound 0.0316 µM
[8] = second compound 0.1 µM, first compound 0.1 µM
[9] = second compound 0.1 µM, first compound 0.316 µM
[10] = second compound 0.1 µM, first compound 1 µM
[11] = second compound 0.1 µM, first compound 3.16 µM
[12] = second compound 0.1 µM, first compound 10 µM
[13] = second compound 0.316 µM, first compound 0.0316 µM
[14] = second compound 0.316 µM, first compound 0.1 µM
[15] = second compound 0.316 µM, first compound 0.316 µM
[16] = second compound 0.316 µM, first compound 1 µM
[17] = second compound 0.316 µM, first compound 3.16 µM
[18] = second compound 0.316 µM, first compound 10 µM
[19] = second compound 1 µM, first compound 0.0316 µM
[20] = second compound 1 µM, first compound 0.1 µM
[21] = second compound 1 µM, first compound 0.316 µM
[22] = second compound 1 µM, first compound 1 µM
[23] = second compound 1 µM, first compound 3.16 µM
[24] = second compound 1 µM, first compound 10 µM
[25] = second compound 3.16 µM, first compound 0.0316 µM
[26] = second compound 3.16 µM, first compound 0.1 µM
[27] = second compound 3.16 µM, first compound 0.316 µM
[28] = second compound 3.16 µM, first compound 1 µM
[29] = second compound 3.16 µM, first compound 3.16 µM
[30] = second compound 3.16 µM, first compound 10 µM
[31] = second compound 10 µM, first compound 0.0316 µM
[32] = second compound 10 µM, first compound 0.1 µM
[33] = second compound 10 µM, first compound 0.316 µM
[34] = second compound 10 µM, first compound 1 µM
[35] = second compound 10 µM, first compound 3.16 µM
[36] = second compound 10 µM, first compound 10 µM
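Further: spheroids exposed to drugs for 7 days before viability reading.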
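Wherever viability, T/C is given: 100% = DMSO vehicle control viability.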

C=CCn1c(=O)c2cnc(Nc3ccc(N4CCN(C)CC4)cc3)nc2n1-c1cccc(C(C)(C)O)n1 + Cc1cnc(CNC(=O)c2c(=O)c3ccc(N4CCCN(C)CC4)nc3n3c2sc2ccccc23)cn1
IC50 (second compound 0.0316 µM): 769 nM
IC50 (second compound 0.1 µM): 481 nM
IC50 (second compound 0.316 µM): 343 nM
IC50 (second compound 1 µM): 592 nM
IC50 (second compound 3.16 µM): 196 nM
IC50 (second compound 10 µM): < 31.6 nM
viability, T/C [1]: 88.4%
viability, T/C [2]: 79.2%
viability, T/C [3]: 61.2%
viability, T/C [4]: 48.8%
viability, T/C [5]: 32.6%
viability, T/C [6]: 31.4%
viability, T/C [7]: 78.3%
viability, T/C [8]: 72.9%
viability, T/C [9]: 55.3%
viability, T/C [10]: 40.8%
viability, T/C [11]: 38.3%
viability, T/C [12]: 40.8%
viability, T/C [13]: 84.8%
viability, T/C [14]: 62.2%
viability, T/C [15]: 50.7%
viability, T/C [16]: 40.9%
viability, T/C [17]: 38.5%
viability, T/C [18]: 26.8%
viability, T/C [19]: 62.9%
viability, T/C [20]: 60%
viability, T/C [21]: 58.4%
viability, T/C [22]: 41.9%
viability, T/C [23]: 36.5%
viability, T/C [24]: 24.3%
viability, T/C [25]: 50.6%
viability, T/C [26]: 54.3%
viability, T/C [27]: 49.1%
viability, T/C [28]: 39.1%
viability, T/C [29]: 32.7%
viability, T/C [30]: 25.6%
viability, T/C [31]: 43.4%
viability, T/C [32]: 12.9%
viability, T/C [33]: 36.4%
viability, T/C [34]: 33.8%
viability, T/C [35]: 20.8%
viability, T/C [36]: 0.23%

COc1ncnc(C2CC2)c1-c1ncc2cnn(Cc3ccc(-c4nc(C(F)(F)F)cn4C(C)C)cc3)c2n1 + Cc1[nH]c2ccc(F)cc2c1-c1nc2c3cccnc3c3ncccc3c2[nH]1
IC50 (second compound 0.0316 µM): 1460 nM
IC50 (second compound 0.1 µM): 1500 nM
IC50 (second compound 0.316 µM): 1190 nM
IC50 (second compound 1 µM): 1190 nM
IC50 (second compound 3.16 µM): 1200 nM
IC50 (second compound 10 µM): 991 nM
viability, T/C [1]: 100%
viability, T/C [2]: 88.8%
viability, T/C [3]: 79.6%
viability, T/C [4]: 56.9%
viability, T/C [5]: 33.5%
viability, T/C [6]: 2.52%
viability, T/C [7]: 98.8%
viability, T/C [8]: 90.4%
viability, T/C [9]: 75.6%
viability, T/C [10]: 67%
viability, T/C [11]: 27.1%
viability, T/C [12]: 2.12%
viability, T/C [13]: 85.8%
viability, T/C [14]: 95.4%
viability, T/C [15]: 80.3%
viability, T/C [16]: 49.7%
viability, T/C [17]: 27.8%
viability, T/C [18]: 1.85%
viability, T/C [19]: 87.2%
viability, T/C [20]: 78.8%
viability, T/C [21]: 75%
viability, T/C [22]: 49.9%
viability, T/C [23]: 31.1%
viability, T/C [24]: 1.7%
viability, T/C [25]: 84.9%
viability, T/C [26]: 95.3%
viability, T/C [27]: 68.5%
viability, T/C [28]: 53.9%
viability, T/C [29]: 29.4%
viability, T/C [30]: 2.26%
viability, T/C [31]: 95.4%
viability, T/C [32]: 76.7%
viability, T/C [33]: 71.3%
viability, T/C [34]: 54.6%
viability, T/C [35]: 20.6%
viability, T/C [36]: 1.93%

CC(C)(O)C1CCC(Nc2ccc3ncc(-c4cccc(C(F)(F)F)c4)n3n2)CC1 (stereo not given) + Cc1cnc(CNC(=O)c2c(=O)c3ccc(N4CCCN(C)CC4)nc3n3c2sc2ccccc23)cn1
IC50 (second compound 0.0316 µM): 1720 nM
IC50 (second compound 0.1 µM): 1320 nM
IC50 (second compound 0.316 µM): 1010 nM
IC50 (second compound 1 µM): 830 nM
IC50 (second compound 3.16 µM): < 31.6 nM
IC50 (second compound 10 µM): < 31.6 nM
viability, T/C [1]: 89.8%
viability, T/C [2]: 82.3%
viability, T/C [3]: 88.3%
viability, T/C [4]: 77.7%
viability, T/C [5]: 18.8%
viability, T/C [6]: 14.4%
viability, T/C [7]: 81.9%
viability, T/C [8]: 79.9%
viability, T/C [9]: 74.2%
viability, T/C [10]: 59.5%
viability, T/C [11]: 20.5%
viability, T/C [12]: 18.2%
viability, T/C [13]: 72.3%
viability, T/C [14]: 69.5%
viability, T/C [15]: 68.6%
viability, T/C [16]: 50.5%
viability, T/C [17]: 18.4%
viability, T/C [18]: 15.9%
viability, T/C [19]: 57.6%
viability, T/C [20]: 53.6%
viability, T/C [21]: 63.1%
viability, T/C [22]: 47.8%
viability, T/C [23]: 21.7%
viability, T/C [24]: 15.1%
viability, T/C [25]: 46.6%
viability, T/C [26]: 46.5%
viability, T/C [27]: 51.7%
viability, T/C [28]: 45.2%
viability, T/C [29]: 0.12%
viability, T/C [30]: 0.13%
viability, T/C [31]: 33.3%
viability, T/C [32]: 13.8%
viability, T/C [33]: 41.2%
viability, T/C [34]: 0.19%
viability, T/C [35]: 0.23%
viability, T/C [36]: 0.18%

CC1COCCN1c1cc(-c2ccnn2C)c2ccnc(-c3ccn[nH]3)c2n1 (stereo not given) + CN(C)c1ccc(Nc2c3ccc(NC(=O)CCN4CCCC4)cc3nc3cc(NC(=O)CCN4CCCC4)ccc23)cc1
IC50 (second compound 0.0316 µM): 206 nM
IC50 (second compound 0.1 µM): 301 nM
IC50 (second compound 0.316 µM): 366 nM
IC50 (second compound 1 µM): 449 nM
IC50 (second compound 3.16 µM): 348 nM
IC50 (second compound 10 µM): 161 nM
viability, T/C [1]: 69.3%
viability, T/C [2]: 53.7%
viability, T/C [3]: 44.4%
viability, T/C [4]: 41.3%
viability, T/C [5]: 29.4%
viability, T/C [6]: 22.8%
viability, T/C [7]: 81%
viability, T/C [8]: 59.2%
viability, T/C [9]: 49.5%
viability, T/C [10]: 39.2%
viability, T/C [11]: 30.9%
viability, T/C [12]: 21.3%
viability, T/C [13]: 65.6%
viability, T/C [14]: 63.4%
viability, T/C [15]: 49.9%
viability, T/C [16]: 39.3%
viability, T/C [17]: 30.4%
viability, T/C [18]: 21.9%
viability, T/C [19]: 66.2%
viability, T/C [20]: 63.6%
viability, T/C [21]: 50.2%
viability, T/C [22]: 45.4%
viability, T/C [23]: 30.6%
viability, T/C [24]: 25%
viability, T/C [25]: 69.4%
viability, T/C [26]: 59.4%
viability, T/C [27]: 49.8%
viability, T/C [28]: 43.6%
viability, T/C [29]: 31.1%
viability, T/C [30]: 22.9%
viability, T/C [31]: 55.6%
viability, T/C [32]: 54.8%
viability, T/C [33]: 44.4%
viability, T/C [34]: 35.5%
viability, T/C [35]: 26.6%
viability, T/C [36]: 21.9%

C=CC(=O)N1CCN(c2nc(=O)n(-c3c(C)ccnc3C(C)C)c3nc(-c4c(O)cccc4F)c(F)cc23)C(C)C1 (stereo not given) + CN(C)c1ccc(Nc2c3ccc(NC(=O)CCN4CCCC4)cc3nc3cc(NC(=O)CCN4CCCC4)ccc23)cc1
IC50 (second compound 0.0316 µM): > 10000 nM
IC50 (second compound 0.1 µM): > 10000 nM
IC50 (second compound 0.316 µM): > 10000 nM
IC50 (second compound 1 µM): > 10000 nM
IC50 (second compound 3.16 µM): > 10000 nM
IC50 (second compound 10 µM): > 10000 nM
viability, T/C [1]: 114%
viability, T/C [2]: 94.2%
viability, T/C [3]: 112%
viability, T/C [4]: 101%
viability, T/C [5]: 98.2%
viability, T/C [6]: 69.6%
viability, T/C [7]: 110%
viability, T/C [8]: 102%
viability, T/C [9]: 96.9%
viability, T/C [10]: 105%
viability, T/C [11]: 103%
viability, T/C [12]: 69.2%
viability, T/C [13]: 110%
viability, T/C [14]: 99.5%
viability, T/C [15]: 98.8%
viability, T/C [16]: 97.3%
viability, T/C [17]: 96.9%
viability, T/C [18]: 77.9%
viability, T/C [19]: 96.2%
viability, T/C [20]: 108%
viability, T/C [21]: 103%
viability, T/C [22]: 103%
viability, T/C [23]: 93.7%
viability, T/C [24]: 83.6%
viability, T/C [25]: 86.6%
viability, T/C [26]: 103%
viability, T/C [27]: 94.2%
viability, T/C [28]: 92.1%
viability, T/C [29]: 111%
viability, T/C [30]: 67.6%
viability, T/C [31]: 71.3%
viability, T/C [32]: 70.3%
viability, T/C [33]: 77.2%
viability, T/C [34]: 75.6%
viability, T/C [35]: 76.3%
viability, T/C [36]: 58.3%

Reference: PubChem BioAssay AID2060500 (Molecular Pharmacology Branch, DTP, NCI, 2025)
